The data set can be described thus: Water solubility (statement). The class given is physicochemical.

Residues, ends and D or L forms follow the SMILES beside them.

The values that follow come from US20250318998A1, “REMINERALIZING RESTORATIVE COMPOSITIONS AND METHODS THEREOF” (ADA FORSYTH INSTITUTE, INC., priority 2023, published 2025).

Consider `N[C@@H](CC(=O)O)C(=O)N[C@@H](CO)C(=O)N[C@@H](CO)C(=O)N[C@@H](CC(=O)O)C(=O)N[C@@H](CO)C(=O)N[C@@H](CO)C(=O)N[C@@H](CC(=O)O)C(=O)N[C@@H](CO)C(=O)N[C@@H](CO)C(=O)N[C@@H](CC(=O)O)C(=O)N[C@@H](CO)C(=O)N[C@@H](CO)C(=O)N[C@@H](CC(=O)O)C(=O)N[C@@H](CO)C(=O)N[C@@H](CO)C(=O)N[C@@H](CC(=O)O)C(=O)N[C@@H](CO)C(=O)N[C@@H](CO)C(=O)N[C@@H](CC(=O)O)C(=O)N[C@@H](CO)C(=O)N[C@@H](CO)C(=O)N[C@@H](CC(=O)O)C(=O)N[C@@H](CO)C(=O)N[C@@H](CO)C(=O)O` [8DSS] (H-DSSDSSDSSDSSDSSDSSDSSDSS-OH; N-terminus and C-terminus assumed), for which the water solubility entry is on record as “water soluble”.
